Key:
DPP-IV = target: T1, DPP-IV (Homo sapiens, UniProt P27487); assay: In vitro DPP-IV inhibition assay (fluorescence, Abnova kit KA1311); assay type: biochemical; details: for inhibition at 100 µM: compound concentration 100 μM, read-out: inhibition rate; for IC50: fluorescence detection, 37 °C, 30 min
T1 construct: purchased Abnova Co. Ltd. (Taipei, Taiwan) KA1311
Experimental: A DPP-IV Inhibitor Screening Assay Kit (KA1311) was purchased from Abnova Co. Ltd. (Taipei, Taiwan). […] The in vitro inhibitory activity of each compound against DPP-IV was determined based on a fluorescence detection method. […] Additionally, a “100% initial activity well” (10 μL dimethyl sulfoxide [DMSO], 30 μL DPP assay buffer, and 10 μL DPP-IV) and a “background well” (10 μL DMSO and 40 μL DPP assay buffer) were prepared. Next, 50 μL of DPP was added to each well and incubated at 37 °C for 30 min. A FlexStation 3 multifunctional microplate reader (Molecular Devices, Sunnyvale, CA, USA) was used to detect the fluorescence value (excitation wavelength: 350–360 nm; emission wavelength: 450–465 nm). […] IC50 values were then calculated using GraphPad Prism 5 (GraphPad Software, La Jolla, CA, USA).

[1] = parameters: method as in doi:10.1002/ptr.2650080207; details: cited from earlier work
Cathepsin L = system: Cathepsin L; parameters: method as in PMID 11440138; details: cited from earlier work
arthritis in rats = system: arthritis in rats; parameters: method as in PMID 11440138; details: cited from earlier work
[2] = system: c-Jun N-terminal kinase (JNK) and p38 pathways; parameters: method as in PMID 25448500; details: induced by LPS stimulation; cited from earlier work
Cathepsin B = system: Cathepsin B; parameters: method as in PMID 11440138; details: cited from earlier work

T1 sequence (P27487 whole entry): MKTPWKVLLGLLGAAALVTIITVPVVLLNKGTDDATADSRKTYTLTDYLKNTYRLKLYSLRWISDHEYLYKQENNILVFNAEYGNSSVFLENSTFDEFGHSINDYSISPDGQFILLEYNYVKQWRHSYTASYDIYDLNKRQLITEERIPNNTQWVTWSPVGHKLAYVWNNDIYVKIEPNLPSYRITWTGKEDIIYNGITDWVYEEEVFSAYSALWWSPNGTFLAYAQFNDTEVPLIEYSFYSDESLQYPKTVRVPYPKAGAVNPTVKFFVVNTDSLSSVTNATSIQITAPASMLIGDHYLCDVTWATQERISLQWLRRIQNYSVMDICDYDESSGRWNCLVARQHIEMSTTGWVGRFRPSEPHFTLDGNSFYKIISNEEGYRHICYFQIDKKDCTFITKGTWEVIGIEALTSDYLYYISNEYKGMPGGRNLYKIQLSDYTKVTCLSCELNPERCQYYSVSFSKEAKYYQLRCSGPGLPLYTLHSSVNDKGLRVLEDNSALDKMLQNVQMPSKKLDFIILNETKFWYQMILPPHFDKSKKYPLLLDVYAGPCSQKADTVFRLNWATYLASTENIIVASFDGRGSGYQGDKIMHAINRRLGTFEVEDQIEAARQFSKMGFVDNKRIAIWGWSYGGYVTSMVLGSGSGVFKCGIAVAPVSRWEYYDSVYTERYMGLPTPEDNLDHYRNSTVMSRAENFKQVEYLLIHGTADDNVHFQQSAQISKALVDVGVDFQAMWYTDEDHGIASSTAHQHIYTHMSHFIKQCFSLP

| SMILES | inhibition at 100 µM (DPP-IV) | IC50 (DPP-IV) | hypotensive effect [1] | Cathepsin L inhibition (Cathepsin L) | effect on arthritis (arthritis in rats) | inhibition of JNK and p38 pathways [2] | Cathepsin B inhibition (Cathepsin B) |
| --- | --- | --- | --- | --- | --- | --- | --- |
| CCOC(=O)NCc1ccc(O[C@@H]2O[C@@H](C)[C@H](O)[C@@H](O)[C@H]2O)cc1 [Compound 1, O-Ethyl-4-[(α-L-rhamnosyloxy)benzyl] carbamate] | 71.2% | 0.798 µM | a certain hypotensive effect | – | – | – | – |
| C[C@@H]1O[C@@H](Oc2ccc(CN=C=S)cc2)[C@H](O)[C@H](O)[C@H]1O [Compound 2, 4-[(α-L-rhamnosyloxy)benzyl] Isothiocyanate] | 30.9% | 158 µM | – | – | – | – | – |
| CC(=O)OC[C@H](Cc1ccccc1)NC(=O)[C@H](Cc1ccccc1)NC(=O)c1ccccc1 [Compound 3, Aurantiamide acetate] | 23.5% | 191 µM | – | inhibiting | relieves arthritis | inhibit | inhibiting |
